One test relates to lettuce leaf discs. Kind of test: leaf disc pinking assay (discs between wetted filter papers, 5° C., 7 days). Format: cell-based. Conditions: for effect on pink discolouration (formation of the pink dye): applied during the reaction; for effect on pink discolouration (formation of the pink dye) / concentration at which the pink discolouration was completely inhibited: lettuce leaf discs; for effect on output signal of the screen (brown or pink discolouration of the wound surface): FIG. 1 legend; for concentration at which the pink discolouration was completely inhibited: applied during the assay, 5° C., 7 days. As for the experimental part:
One embodiment of this invention is based on the surprising finding that when discs from leaves, in particular lettuce leaves, are taken and incubated between wetted filter papers at 5° C., after approximately 4 days the formation of a pink dye at the edges of the leaf discs becomes apparent. Suitable filter paper is filter paper type 1450 CV, Ref no. 10 313 281 from Schleier & Schuell, Microscience GmbH, Dassel, Germany. Upon further incubation, the signal intensifies and after approximately one week the maximum intensity has been reached. The formation of the pink dye occurs specifically at wound surfaces.
A phenotypic assay was developed in which leaf discolouration of lettuce induced by wounding can readily be assessed. This approach allows young plant screening for discolouration. Leaf discs of 5 mm diameter were taken from young or mature plants and placed between wetted filter papers in a tray. The system was incubated at 5° C. for 7 days. During the incubation a pink dye developed at the wound site of the leaf disc which became clearly visible as a printed circle on the filter paper (FIG. 2).

For another test, the system named is lettuce PPO. Kind of test: L-DOPA leaf disc assay (conversion of L-DOPA into melanin). Format: cell-based. As for the experimental part: In addition to assays which address wound-induced discolouration in a broad sense, the method according to this invention also allows to screen in a more specific manner for mutants which have a reduced PPO activity. A phenotypic assay which is indicative for PPO activity was developed by using leaf discs which were incubated in the presence of 1.5 mM L-DOPA. As a black discolouration became apparent it can be concluded that L-DOPA can readily be converted by the polyphenol oxidising system at the wound surface of lettuce leaves into a black pigment called melanine. L-DOPA is converted by PPO into the reactive L-DOPA-quinone which is converted non-enzymatically via dopachrome and indol quinone into the black melanin.

Test [1] is described as follows: treatment of formed dye with reducing agent after the wound response was completed. The conditions noted are these: added after the wound response was completed. The arrangement: species or system lettuce. As for the experimental part:
As L-cysteine is known to react with o-quinones, which are PPO products, by converting them back into colourless diphenols, the effects of L-cysteine on the pink dye coming from lettuce leaf discs was determined. In parallel the effect of L-cysteine was determined on the melanin formation upon incubation with L-DOPA. Leaf discs were taken and incubated according to the procedures described above. After the wound response was completed, a concentration series of L-cysteine was added to the leaf disc and the change in colour was monitored.

Test [2] relates to field-grown lettuce plant. In words: L-cysteine treatment of leaf discs from field-grown lettuce showing pinking. Conditions: 1 mM L-cysteine, approximately 30 minutes, room temperature. The method, then:
This is typically observed when plants have been stressed, for example by conditions of severe water logging. The leaf was used to prepare leaf discs which were incubated immediately by 1 mM L-cysteine.

Test [3] deals with lettuce outer leaf midrib tissue discs. In words: midrib disc browning assay (wetted filter paper, 16° C.). The format is cell-based. Conditions: 10 mM L-cysteine, approximately 72 hours. The method, then:
Lettuce plants were grown to maturity and parts of outer leaves were taken by cutting discs from the rib tissue. The discs were incubated on wetted filter paper at 16° C. After approximately 72 hours, the wound surface had turned brown.

The structures appear in SMILES notation. “Also recorded” adds a separate entry of the source. Some results are limits rather than exact numbers.

For `C[C@H](N)C(=O)O` [L-alanine], the “effect on pink discolouration (formation of the pink dye)” value (from here on “effect … (formation of the pink dye)”) in the test with lettuce leaf discs is reported as “did not show any effect”.
As for `N[C@@H](CS)C(=O)O` [L-cysteine], in the test with lettuce leaf discs, the “effect on output signal of the screen (brown or pink discolouration of the wound surface)” value was “completely inhibited”, the “concentration at which the pink discolouration was completely inhibited” value is on record as not below 0.001% and the “effect … (formation of the pink dye)” value is recorded as “strongly suppressed the formation of the pink dye”. Also, the “effect on black discolouration (melanin formation from L-DOPA)” value in the test with lettuce PPO (applied simultaneously with L-DOPA (1 mM L-cysteine elsewhere in the source)) is “completely inhibited; also recorded: can be inhibited”. Moreover, the “concentration at which L-DOPA discolouration was completely inhibited” value in the test with lettuce PPO (applied simultaneously with L-DOPA, lettuce leaf discs) is not below 1 mM. For the same compound, in test [1], the “effect on black melanin already formed in the L-DOPA assay” value is listed as “not affected” and the “effect on the pink dye already formed by lettuce leaf discs” value (“effect on the pink dye already formed” for short) was “converted into a colourless compound; also recorded: converting the pink dye back into a colourless compound”. The “effect on pink discolouration of field-grown lettuce leaf” value in test [2] is reported as “the pink discolouration is also eliminated; also recorded: the pink discolouration disappeared”. Further, the “effect on browning response of wound surface” value in test [3] is “completely be inhibited; also recorded: the browning response was inhibited”.
For the compound `CC(C)C[C@H](N)C(=O)O` [L-leucine], the “effect … (formation of the pink dye)” value with lettuce leaf discs is “did not show any effect”.
As for `O=C1O[C@H]([C@@H](O)CO)C(O)=C1O` [ascorbic acid], the “effect on the pink dye already formed” value in test [1] is on record as “convert the pink dye into a colourless compound”.
As for `O=CC=Cc1ccccc1` [cinnamaldehyde], in the test with lettuce leaf discs, the “effect on output signal of the screen (brown or pink discolouration of the wound surface)” value is “completely inhibited”, the “concentration at which the pink discolouration was completely inhibited” value was not below 0.01% and the “effect … (formation of the pink dye)” value is “formation of the pink dye was inhibited”.
Take `N[C@@H](CCC(=O)N[C@@H](CS)C(=O)NCC(=O)O)C(=O)O` [glutathion]: the “effect on the pink dye already formed” value in test [1] is recorded as “convert the pink dye into a colourless compound”.

For the origin of these results see US8809631B2, “Screening method for selecting plants that show reduced wound-induced surface discolouration and plant and plant parts thus obtained” (Rijk Zwaan Zaadteelt en Zaadhandel B.V., priority 2007, dated 2014).
